Measured values: patent publication US5945454A, “2-(4-substituted)-benzylamino-2-methyl-propanamide derivatives” (Pharmacia & Upjohn, S.P.A., priority 1995, dated 1999)

System: maximal electroshock seizures (MES)
Test: antagonism of maximal electroshock seizures (MES) after oral administration
Assay type: in vivo
Conditions: limits in parentheses, read-out: MES-ED50 (effective dose in 50% of treated animals)
Method: The activity on the CNS of the compounds of the invention was evaluated on the basis of pharmacological methods, such as, for example, the antagonism of convulsions and lethality induced by intravenous injection of bicuculline in mice (Antiepileptic Drugs, D. M. Woodbury et al. eds., 2nd edition, Raven Press, New York, 1982), or the antagonism of maximal electroshock seizures (MES) (Woodbury, L. A. and Davenport, V. D., Arch. Int. Pharmacodyn. Ther. 92; 97-104, 1952).
The following table summarizes the activity data obtained by testing in the MES test a representative group of compounds of the invention in comparison with the respective 2-desmethyl related compounds known from WO 90/14334.
ED50 means effective dose in 50% of treated animals after per os (po) administration.

Q: For `CNC(=O)[C@H](C)NCc1ccc(OCc2cccc(F)c2)cc1.CS(=O)(=O)O` [FCE 28657A, (S)-2-(4-(3-fluorobenzyloxy)benzylamino)-N-methylpropanamide, methanesulfonate], which ED50 is on record?
A: Its ED50 is 9.35 mg/kg.

Q: For `C[C@H](NCc1ccc(OCc2cccc(Cl)c2)cc1)C(N)=O` [FCE 26193A, (S)-2-(4-(3-chlorobenzyloxy)benzylamino) propanamide, methanesulfonate], which ED50 is on record?
A: Its ED50 is 9.41 mg/kg.

Q: For `C[C@H](NCc1ccc(SCc2ccccc2)cc1)C(N)=O` [FCE 26727A, (S)-2-(4-benzylsulfanyl)benzylamino) propanamide, methanesulfonate], which ED50 is on record?
A: Its ED50 is 12.7 mg/kg.

Q: For `CC(C)(NCc1ccc(OCc2cccc(Cl)c2)cc1)C(N)=O` [FCE 29644A, 2-[4-(3-chlorobenzyloxy)benzylamino]-2-methyl-propanamide, methanesulfonate], which ED50 is on record?
A: Its ED50 is 3.88 mg/kg.

Q: With `C[C@H](NCc1ccc(OCc2ccc(F)cc2)cc1)C(N)=O` [FCE 26998A, (S)-2-(4-(4-fluorobenzyloxy)benzylamino) propanamide, methanesulfonate] as the compound, how does the ED50 read?
A: The ED50 was 16.3 mg/kg.

Q: For `C[C@H](NCc1ccc(OCc2cccc(F)c2)cc1)C(N)=O` [FCE 26743A, (S)-2-(4-(3-fluorobenzyloxy)benzylamino) propanamide, methanesulfonate], which ED50 is on record?
A: The ED50 was 8.2 mg/kg.

Q: For `CC(C)(NCc1ccc(OCc2ccccc2F)cc1)C(N)=O.CS(=O)(=O)O` [FCE 29484A, 2-[4-(2-fluorobenzyloxy)benzylamino]-2-methyl-propanamide, methanesulfonate], which ED50 is on record?
A: Its ED50 is 3.1 mg/kg.

Q: `C[C@H](NCc1ccc(OCc2ccccc2F)cc1)C(N)=O` [FCE 26742A, (S)-2-(4-(2-fluorobenzyloxy)benzylamino) propanamide, methanesulfonate] was tested. Which ED50 did it give?
A: The ED50 was 7.13 mg/kg.

Q: For `CNC(=O)C(C)(C)NCc1ccc(OCc2cccc(F)c2)cc1.CS(=O)(=O)O` [FCE 29647A, 2-[4-(3-fluorobenzyloxy)benzylamino]-2-methyl-N-methyl-propanamide, methanesulfonate], which ED50 is on record?
A: The ED50 was 4.34 mg/kg.

Q: Which ED50 does the source give for `CC(C)(NCc1ccc(OCc2cccc(F)c2)cc1)C(N)=O` [FCE 29088A, 2-[4-(3-fluorobenzyloxy)benzylamino]-2-methyl-propanamide, methanesulfonate] here?
A: Its ED50 is 4.4 mg/kg.

Q: `CC(C)(NCc1ccc(OCc2ccc(F)cc2)cc1)C(N)=O.CS(=O)(=O)O` [FCE 29645A, 2-[4-(4-fluorobenzyloxy)benzylamino]-2-methyl-propanamide, methanesulfonate] was tested. Which ED50 did it give?
A: Its ED50 is 6.58 mg/kg.

Q: With `CC(C)(NCc1ccc(SCc2ccccc2)cc1)C(N)=O` [FCE 29482A, 2-[(4-benzylsulfanyl)benzylamino]-2-methyl-propanamide, methanesulfonate] as the compound, how does the ED50 read?
A: The ED50 was 3.12 mg/kg.
